Patent publication US8193333B2, “Cancer therapy using Bcl-Xl-specific siNA” (Centre Regional de Lutte Contre le Cancer-Centre Francois …, priority 2006, dated 2012)

Legend:
Mcl-1 mRNA = assay: RT-PCR of Mcl-1 mRNA in SKOV3 cells; format: cell-based, human; details: 72 h after transfection, FIG. 11A
Experimental: (§1) The siRNA duplexes were transfected according to the recommended procedure by using the Oligofectamine Reagent and Opti-MEM medium (INVITROGEN LIFE TECHNOLOGIES). 30-40% confluent cells were transfected in 25 cm^2 flasks with different concentrations of siXL1, siRNA Mcl-1 or siRNA control and incubated at 37° C., 5% CO2 for 4 hours. Next, 20% fetal bovin serum was added to reach a final concentration of 10% foetal bovin serum in the 25 cm^2 flask.

SKOV3 cells [1] = assay: Cell mortality, viability, growth and cell cycle of SKOV3 cells (morphology, trypan blue exclusion, FACS of DNA content); format: cell-based, human; details: for cellular and nuclear morphologies and cell cycle versus untransfected SKOV3 cells: alone 150 nM or in combination 75 nM each, 72 h after transfection, FIG. 13; for cell death (morphology, FACS analysis of the cell cycle): cisplatin 5 or 20 μg/ml, siRNA 150 nM
Experimental: (§2) Exponentially growing cells were exposed to CDDP for 2 hours at 37° C., in serum free medium. After exposure to the drug, the cell layers were rinsed and incubated in complete growth medium.
as §1
(§3) After treatment, detached cells were collected separately and adherent cells were dissociated by trypsin/EDTA. Adherent and detached cells were then pooled and centrifuged at 1500×g for 5 min before being fixed in 70% ethanol. The cells were then collected on a polylysine-coated glass slide by cytocentrifugation, before a 30 min room temperature incubation in a 1 μg/ml DAPI aqueous solution (BOEHRINGER MANNHEIM). Slides were thereafter extensively washed in distilled water and mounted in Mowiol (CALBIO-CHEM).
After treatment, detached cells were collected separately. Adherent cells were then harvested by trypsin/EDTA dissociation. Adherent and detached cells were then pooled and washed in PBS before being fixed in 70% ethanol and stored at −20° C. until analysis. Before flow cytometry analysis, the cells were washed in PBS and incubated for 30 min at room temperature in PBS in order to allow the release of low molecular weight (m.w.) DNA, characteristic of apoptotic cells. After a centrifugation at 4000 g for 10 min, the cell pellets were resuspended and stained with propidium iodide (PI) using the DNA Prep Coulter Reagent Kit (BECKMAN-COULTER) at a final concentration of 10^6 cells/ml.
Samples were analyzed using an EPICS XL flow cytometer (BECKMAN COULTER) equipped with an argon laser at 15 mW. PI-stained cells were analyzed using a 488 mn excitation. A 620 nm band pass filter was put on the red fluorescence of PI. Computerized gating was applied on the side and forward scatter to exclude very small debris and on pulse width and integral peak of red fluorescence to eliminate aggregates. All samples were analyzed at a flow rate lower than 100 events per second and with a sheath pressure of 30 psi.

Mcl-1 protein = assay: Western blot of Mcl-1 protein expression in SKOV3 cells; format: cell-based, human; details: FIG. 11B
Experimental: as §1
Cells were rinsed with ice cold PBS and lysed in 150 mM NaCl, 50 mM Tris-HCl pH 8, 1% Triton X100, 4 mM PMSF, 2 mM Aprotinin, 5 mM EDTA, 10 mM NaF, 10 mM NaPPi, 1 mM Na3VO4 for 30 min on ice. Lysates were clarified by centrifugation at 10000 g for 10 min at 4° C. and protein concentrations were determined using the Bradford assay (BIO-RAD). Equal amounts of total cellular protein (20 μg) were resolved in a Bis-tris-HCL buffered (pH 6.4) 4-12% polyacrylamide gel (NuPAGE® Novex® 4-12% Bis-tris gel, INVITROGEN) for 35 min at 200V and electrophoretically transferred on a PVDF membrane (MILLIPORE) for 75 min at 30V. The membrane was blocked for 1 hour at room temperature in T-TBS (132 mM NaCl, 20 mM Tris-HCl pH 7.6, 0.05% Tween 20) supplemented with 5% non-fat dry milk. […] After 3 washes with T-TBS and one with TBS, the immunoreactivity was detected by enhanced chemiluminescence (ECL kit, AMERSHAM).

Bcl-XL protein = assay: Western blot of Bcl-XL protein expression in tumour cell lines after siRNA transfection; format: cell-based, human; details: SKOV3 cells
Experimental: SKOV3, OAW42, OAW42-R10, IGROV1 and IGROV1-R10 human ovarian adenocarcinoma cell lines, GL15 glioblastoma cell line, and NCI-H28 mesothelioma cell line were obtained from ECACC or ATCC. OAW42, OAW42-R10 cells were grown in DMEM (GIBCO-BRL) supplemented with 10% foetal calf serum (GIBCO-BRL), 2 mM Glutamax™ (GIBCO-BRL), 1 mM sodium pyruvate (GIBCO-BRL), 20 UI/L human recombinant insulin (LILLY), 33 mM sodium bicarbonate and 20 mM HEPES All the other cell lines were grown in RPMI 1640 medium (GIBCO-BRL) supplemented with 10% foetal calf serum (GIBCO-BRL), 2 mM Glutamax™ (GIBCO-BRL), 33 mM sodium bicarbonate and 20 mM HEPES. Cells were maintained at 37° C. in a 5% CO2 humidified atmosphere, and split twice a week by trypsinization.
as §2, §1
(§4) Cells were rinsed with ice cold PBS and lysed in 150 mM NaCl, 50 mM Tris-HCl pH 8, 1% Triton X100, 4 mM PMSF, 2 mM Aprotinin, 5 mM EDTA, 10 mM NaF, 10 mM NaPPi, 1 mM Na3VO4 for 30 min on ice. Lysates were clarified by centrifugation at 10000 g for 10 min at 4° C. and protein concentrations were determined using the Bradford assay (BIO-RAD). Equal amounts of total cellular protein (20 μg) were resolved in a Bis-tris-HCL buffered (pH 6.4) 4-12% polyacrylamide gel (NuPAGE® Novex® 4-12% Bis-tris gel, INVITROGEN) for 35 min at 200V and electrophoretically transferred on a PVDF membrane (MILLIPORE) for 75 min at 30V. The membrane was blocked for 1 hour at room temperature in T-TBS (132 mM NaCl, 20 mM Tris-HCl pH 7.6, 0.05% Tween 20) supplemented with 5% non-fat dry milk. The membrane was incubated for 1 hour at room temperature in T-TBS-milk with the following primary antibodies: anti-Bcl-XL/S (1:500, S18 SANTA-CRUZ BIOTECHNOLOGY), anti-PARP (1:1000, CELL-SIGNALING TECHNOLOGY), anti-caspase-3 (1:1000, BD BIOSCIENCES PHARMINGEN) anti-cleaved caspase-3 (1:1000, CELL-SIGNALING TECHNOLOGY), anti-alpha-tubulin (1:3000, SIGMA) and anti-Mcl-1 (1:750, S19 SANTA-CRUZ BIOTECHNOLOGY). After three washes with T-TBS, the membrane was incubated for 1 h at room temperature in T-TBS-milk with the adequate peroxidase conjugated secondary antibody (Anti-rabbit IgG, CELL-SIGNALING TECHNOLOGY, and anti-mouse IgG, AMERSHAM). After 3 washes with T-TBS and one with TBS, the immunoreactivity was detected by enhanced chemiluminescence (ECL kit, AMERSHAM).

[2] = test system: intraperitoneal SKOV3 human ovarian adenocarcinoma; assay: Survival of nude mice bearing intraperitoneal SKOV3 tumours; format: in vivo, Swiss/nude mice; details: siRNA 25 μg/kg, cisplatin 4 μg/kg intraperitoneal, treatment repeated one month later, FIG. 15
Experimental: 4-week-old female Swiss/nude mice were obtained from CHARLES-RIVER LABORATORIES and maintained in a pathogen-free environment. The mice were fed a standard laboratory diet and tap water ad libitum and kept a 23±1° C. with a 12 h light/dark cycle. Animal experiments in the present study were performed in compliance with the guidelines of the Federation of european laboratory animal science associations.
6-8 weeks old mice were implanted intraperitoneally with 2×10^7 ovarian adenocarcinoma SKOV3 cells. As described previously, this model reflects the i.p growth pattern of advanced ovarian cancer (Louis et al, Cancer Gene Therapy, 2006, 13, 367-374).
Twenty one days after tumour implantation, mice were allocated to one of the eight treatment groups (10 mice per group) summarized in Table II: • Group 1 comprised untreated animals. • Group 2 received intraperitoneal injection of 4 μg/kg cisplatin in 1 ml 0.9% NaCl solution. • Group 3 received intraperitoneal injection of 25 μg/kg control siRNA in 1 ml 0.9% NaCl. • Group 4 received intraperitoneal injection of 25 μg/kg Bcl-XL siRNA in 1 ml 0.9% NaCl. • Group 5 received intraperitoneal injection of 25 μg/kg control siRNA in 1 ml 0.9% NaCl and the following day 4 μg/kg of cisplatin in 1 ml 0.9% NaCl solution. • Group 6 received intraperitoneal injection of 4 μg/kg of cisplatin in 1 ml 0.9% NaCl solution and the following day 25 μg/kg control siRNA in 1 ml 0.9% NaCl. • Group 7 received intraperitoneal injection of 25 μg/kg Bcl-XL siRNA in 1 ml 0.9% NaCl and the following day 4 μg/kg of cisplatin in 1 ml 0.9% NaCl solution. • Group 8 received intraperitoneal injection of 4 μg/kg of cisplatin in 1 ml 0.9% NaCl solution and the following day 25 μg/kg Bcl-XL siRNA in 1 ml 0.9% NaCl.
The same treatment was repeated one month later. Mice were killed and autopsied when considered as moribund. Organs and tumours were formalin-fixed and paraffin-embedded for histological examination. At the end of the experiment, all surviving animals were sacrificed, and histological examination was performed in order to detect residual tumour nodes.

SKOV3 cells [3] = assay: Apoptosis induction in SKOV3 cells (cell and nuclear morphology after DAPI, caspase 3 activation and PARP cleavage by Western blot); format: cell-based, human; details: 24 h, combination with 20 μg/ml cisplatin
Experimental: as §2, §1, §4, §3

Row | Compound | Mcl-1 mRNA expression (RT-PCR) (Mcl-1 mRNA) | cytotoxic effect on SKOV3 cells (SKOV3 cells [1]; 50 nM each siRNA, absence of cisplatin, FIG. 12) | cytotoxic effect of each siRNA (SKOV3 cells [1]; SKOV3 cells, FIGS. 13 and 14) | cellular and nuclear morphologies and cell cycle versus untransfected SKOV3 cells (SKOV3 cells [1]) | Mcl-1 protein expression after 72 hours (Mcl-1 protein) | cell death (morphology, FACS analysis of the cell cycle) (SKOV3 cells [1]; SKOV3 cells) | effect of various concentrations on Bcl-XL protein expression (Bcl-XL protein; 72 h after transfection, FIG. 3) | effect on mice survival [2] | caspase 3 activation and PARP cleavage after 24 h exposure to cisplatin (SKOV3 cells [3]) | cell mortality / cell cycle after several days (SKOV3 cells [1]; SKOV3 cells, cisplatin 5 and 20 μg/ml) | Bcl-XL protein expression 24 hours after exposure to cisplatin (Bcl-XL protein; 72 hours after siRNA transfection, cisplatin 5 and 20 μg/ml, FIG. 9)
1 | siMcl-1: Mcl-1 specific siRNA; sense 5′-gugccuuuguggcuaaacatt-3′ (SEQ ID NO: 7), anti-sense 5′-uguuuagccacaaaggcacct-3′ (SEQ ID NO: 8) (sense GUGCCUUUGUGGCUAAACATT; antisense UGUUUAGCCACAAAGGCACCT; chemistry not given here) | almost completely | no cytotoxic effect | slight cytoxic effect | no difference | disappeared totally | – | – | – | – | – | –
2 | control siRNA: control siRNA without homology to relevant human genes; sense SEQ ID NO: 9, anti-sense SEQ ID NO: 10 (sense GACGUGGGACUGAAGGGGUTT; antisense ACCCCUUCAGUCCCACGUCTT; chemistry not given here) [reference compound] | – | – | – | no difference | – | no changes | No effect | does not increase the mice survival | – | – | –
3 | N.N.[Cl][Pt][Cl] [cisplatin, cis-diamino-dichloro-platinum II, reference compound] | – | – | – | – | – | low level or no cell death | – | does not improve survival | no sign of apoptosis | only a transient arrest in cell cycle progression | no effect
